Where two headings read alike, the source gives them in different places.
Molecular target: T1, Human TREM2 (Homo sapiens, UniProt Q9NZC2)
T1 construct: expressed in transfected cells
Assay: Human TREM2 activity: cellular phosphorylation of Syk (AlphaLISA SureFire Ultra p-SYK) in HEK293/DAP12+TREM2 stable cell line
Format: cell-based
Details: for Emax: maximal response relative to reference agonist example 1B (remaining examples); for EC50: phospho-Syk AlphaLISA signal, HEK293/DAP12+TREM2 cells, concentration giving 50% of maximal response, read-out: EC50
Description: Human TREM2, in vitro Measurement of Triggering Receptor Expressed on Myeloid Cells 2 activity using cellular phosphorylation of Spleen Tyrosine Kinase (“Syk”) Assay
HEK-293 cells were co-transfected with separate plasmids encoding TREM2 and DAP12 to generate a stable cell line. After antibiotic selection, functional clone pool analysis and two successive limiting dilutions, the final clone “HEK293/DAP12+TREM2” underwent a qPCR analysis and a pharmacological validation.
TREM2 signaling through DAP12 was monitored in the HEK293/DAP12+TREM2 stable cell line by measuring the phosphorylation levels of the Syk kinase using the commercially available AlphaLISA SureFire Ultra p-SYK (Tyr525/526) Assay Kit (PerkinElmer #ALSU-PSYK), based on the Perkin Elmer AlphaScreen/AlphaLISA technology.
Compounds are transferred to the test plate and tested in full dose response, 8 concentrations in quadruplicate data points. Compound serial dilutions were performed at Cybi-Felix instrument in 100% DMSO and the dose response curves were assembled in automated fashion in 384MPT at Hamilton STARlet instrument. All the stock solutions were prepared at 20 mM in 100% DMSO. For compounds testing, the starting concentration was 100 μM, dilution steps 1:6. […] Finally, a 384MPT reformatted for all compounds at 8 concentrations, quadruplicates, was used as “mother to child” process with a CyBi®-Well dispenser in which 1 μL of each compound was moved into a destination plate pre-filled with 65.6 μL of EMEM cell culture medium (BIOWHITTAKER_cat.BE12-125F), thus obtaining 3× concentrated compounds working solution. In columns 1-2 and 23-24 the control wells were added. In particular, dose response curves of a reference control agonist were included in column 1 and 24 as reference control agonist (Reference control agonists used include Human TREM2 polyclonal Antibody AF1828: R&D Systems; Human TREM2 monoclonal Antibody MAB1828: R&D Systems). The dose response curves were tested starting at 30 μM, dilution step 1:6. Both “source” compound plate and “destination” compound plate were barcoded and a relationship between the two plates was thus generated.
HEK293/DAP12+TREM2 cells were cultured in EMEM medium supplemented with IX Penicillin/Streptomycin (BIOWHITTAKER_cat.DE17-602E), ULTRAGLUTAMINE I 200 mM, 10% Fetal Bovine Serum plus antibiotics referred to as “HEK293 Culture Medium”. The day before the experiment, cells were detached by gentle wash with DPBS, followed by 5 min incubation at 37° C. with Trypsin solution. Cells were then diluted in HEK293 Culture Medium without antibiotics, counted and seeded into 384-well poly-D-Lysine coated microplates black/clear bottom (GREINER 781946) at a density of 10,000 cells/well in 25 μL/well by the use of a MATRIX WellMate dispenser. Plates were placed into a humidified cell culture incubator at 37° C. with 5% CO2 until the experimental day. 20-24 hours after seeding mature medium was removed and replaced with 10 μL/well of EMEM cell medium supplemented with 0.1% Pluronic F-68 non-ionic surfactant (Thermofisher, 24040032), referred to as “Assay Buffer”, using the CyBi®-Well instrument. Then 5 μL/well of Assay Buffer containing 3× concentrated test compounds or the reference control agonist (in 0.5% final DMSO concentration) were added to the cells with the CyBi®-Well instrument. Cell plates were incubated for 30 min into a humidified cell culture incubator at 37° C. with 5% CO2·, then the medium was removed by manually discard. 20 μL/well of lysis buffer were dispensed using the CyBi®-Well instrument and plates were incubated for 10 min at room temperature on a plate shaker (350 rpm). Then, 10 μL/well of lysate were transferred to the Alpha plates. The CyBi®-Well instrument was used to dispense 5 μL/well of AlphaLISA Acceptor Bead Solution in IX Immunoassay buffer (Perkin Elmer AL000F). Then the plates were sealed with Heat sealing foil, shaked for 2 minutes (350 rpm) and incubated for 1 hour at room temperature.

T1 sequence (Q9NZC2 19-230): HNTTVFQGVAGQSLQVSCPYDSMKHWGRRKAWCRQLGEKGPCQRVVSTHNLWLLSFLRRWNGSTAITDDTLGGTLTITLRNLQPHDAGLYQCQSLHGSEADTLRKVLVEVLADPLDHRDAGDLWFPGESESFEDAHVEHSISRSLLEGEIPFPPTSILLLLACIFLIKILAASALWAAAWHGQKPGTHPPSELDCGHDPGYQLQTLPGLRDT
T1 sequence (O43914 22-113 partner): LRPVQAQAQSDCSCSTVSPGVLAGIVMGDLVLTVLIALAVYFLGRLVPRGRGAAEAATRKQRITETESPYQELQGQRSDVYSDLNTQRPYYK

Structure (SMILES)	Emax (HEK293, read-out: Emax) [%]	EC50 [µM]	Emax
Cc1nc2c(C3CCC(C)CC3)nc(N3CCOC(c4cnn(C)c4)C3)nc2c(=O)n1C (single isomer, unassigned) [Example 71A]	75 to 110	0.01 to 0.1	–
Cc1nc2c(nc(N3CCO[C@@H](c4cnn(C)c4)C3)nc2[C@H]2CC[C@H](C)CC2)c(=O)n1C (single isomer, unassigned) [Example 71B]	–	0.01 to 0.1	+ (<75%)
Cc1nc2c(-c3ccc(C(F)(F)F)nc3)nc([C@@H]3CCO[C@H](c4cnn(C)c4)C3)nc2c(=O)n1C (single isomer, unassigned) [Example 88A]	< 75	> 1	–
Cc1nc2c(-c3ccc(C(F)(F)F)nc3)nc([C@H]3CCO[C@@H](c4cnn(C)c4)C3)nc2c(=O)n1C (single isomer, unassigned) [Example 88B]	< 75	> 1	–
Cc1nc2c(-c3ccc(Cl)cc3F)nc(N3C[C@H](c4cnn(C)c4)OC(C)(C)C3)nc2c(=O)n1C (single isomer, unassigned) [Example 89B]	75 to 110	0.01 to 0.1	–
Cc1nc2c(-c3ccc(C(F)(F)F)nc3)nc(N3CCC(F)(F)[C@H](c4cnn(C)c4)C3)nc2c(=O)n1C (single isomer, unassigned) [Example 92]	< 75	0.01 to 0.1	–
Cc1nc2c(-c3ccc(C(F)(F)F)nc3)nc(N3CCC(F)(F)[C@@H](c4cnn(C)c4)C3)nc2c(=O)n1C (single isomer, unassigned) [Example 93]	75 to 110	0.01 to 0.1	–
Cc1cc([C@H]2C[C@@H](c3nc(-c4ccc(Cl)cc4F)c4nc(C)n(C)c(=O)c4n3)CCO2)ccn1 (single isomer, unassigned) [Example 94]	75 to 110	0.001 to 0.01	–
Cc1cc([C@H]2C[C@H](c3nc(-c4ccc(Cl)cc4F)c4nc(C)n(C)c(=O)c4n3)CCO2)ccn1 (single isomer, unassigned) [Example 95]	< 75	0.1 to 1	–
Cc1nc2c(-c3cc(F)c(F)cc3F)nc([C@@H]3CCO[C@H](c4cnn(C5CC5)c4)C3)nc2c(=O)n1C (single isomer, unassigned) [Example 97A]	75 to 110	0.01 to 0.1	–
Cc1nc2c(-c3cc(F)c(F)cc3F)nc([C@H]3CCO[C@@H](c4cnn(C5CC5)c4)C3)nc2c(=O)n1C (single isomer, unassigned) [Example 97B]	< 75	> 1	–
Cn1cc([C@H]2CN(c3nc(-c4ccc(Cl)cc4F)c4nc(C(F)(F)F)n(C)c(=O)c4n3)CCO2)cn1 (single isomer, unassigned) [Example 103]	75 to 110	0.001 to 0.01	–

The remaining lines, values ahead:

Emax (HEK293, read-out: Emax) [%]	EC50 [µM]	Emax	Structure (SMILES)
< 75	0.01 to 0.1	–	Cc1nc2c(-c3ccc(C(F)(F)F)nc3)nc([C@@H]3CCO[C@H](c4cnn(C5CC5)c4)C3)nc2c(=O)n1C (single isomer, unassigned) [Example 98A]
< 75	> 1	–	Cc1nc2c(-c3ccc(C(F)(F)F)nc3)nc([C@H]3CCO[C@@H](c4cnn(C5CC5)c4)C3)nc2c(=O)n1C (single isomer, unassigned) [Example 98B]
75 to 110	0.01 to 0.1	–	Cc1nc2c(-c3ccc(C(F)(F)F)cc3F)nc(N3C[C@@H](c4cnn(C)c4)OC(C)(C)C3)nc2c(=O)n1C (single isomer, unassigned) [Example 100A]
< 75	0.1 to 1	–	Cc1nc2c(-c3ccc(C(F)(F)F)cc3F)nc(N3C[C@H](c4cnn(C)c4)OC(C)(C)C3)nc2c(=O)n1C (single isomer, unassigned) [Example 100B]
75 to 110	0.01 to 0.1	–	Cc1nc2c(-c3cc(F)c(F)cc3F)nc(N3C[C@@H](c4cnn(C)c4)OC(C)(C)C3)nc2c(=O)n1C (single isomer, unassigned) [Example 101A]
< 75	> 1	–	Cc1nc2c(-c3cc(F)c(F)cc3F)nc(N3C[C@H](c4cnn(C)c4)OC(C)(C)C3)nc2c(=O)n1C (single isomer, unassigned) [Example 101B]
75 to 110	0.01 to 0.1	–	Cc1nc2c(-c3ccc(C(F)(F)F)nc3)nc(N3C[C@@H](c4cnn(C)c4)OC(C)(C)C3)nc2c(=O)n1C (single isomer, unassigned) [Example 102A]
< 75	> 1	–	Cc1nc2c(-c3ccc(C(F)(F)F)nc3)nc(N3C[C@H](c4cnn(C)c4)OC(C)(C)C3)nc2c(=O)n1C (single isomer, unassigned) [Example 102B]
75 to 110	0.01 to 0.1	–	Cc1nc2c(-c3ccc(Cl)cc3F)nc(N3CCO[C@H](c4cnn(C(F)(F)F)c4)C3)nc2c(=O)n1C (single isomer, unassigned) [Example 107A]
75 to 110	0.1 to 1	–	Cc1nc2c(-c3ccc(Cl)cc3F)nc(N3CCO[C@@H](c4cnn(C(F)(F)F)c4)C3)nc2c(=O)n1C (single isomer, unassigned) [Example 107B]
75 to 110	0.001 to 0.01	–	Cc1nc2c(-c3ccc(Cl)cc3F)nc(N3C[C@@H](c4cnn(C)c4)OC4(CC4)C3)nc2c(=O)n1C (single isomer, unassigned) [Example 108A]
< 75	0.1 to 1	–	Cc1nc2c(-c3ccc(Cl)cc3F)nc(N3C[C@H](c4cnn(C)c4)OC4(CC4)C3)nc2c(=O)n1C (single isomer, unassigned) [Example 108B]
75 to 110	0.001 to 0.01	–	Cc1nc2c(-c3ccc(Cl)cc3F)nc(N3C[C@@H](c4cnn(C)c4)OC4(CCC4)C3)nc2c(=O)n1C (single isomer, unassigned) [Example 109A]
< 75	0.1 to 1	–	Cc1nc2c(-c3ccc(Cl)cc3F)nc(N3C[C@H](c4cnn(C)c4)OC4(CCC4)C3)nc2c(=O)n1C (single isomer, unassigned) [Example 109B]
75 to 110	0.001 to 0.01	–	Cc1nc2c(-c3ccc(Cl)cc3F)nc(N3C[C@@H](c4cnn(C5CC5)c4)OC(C)(C)C3)nc2c(=O)n1C (single isomer, unassigned) [Example 110A]
< 75	0.01 to 0.1	–	Cc1nc2c(-c3ccc(Cl)cc3F)nc(N3C[C@H](c4cnn(C5CC5)c4)OC(C)(C)C3)nc2c(=O)n1C (single isomer, unassigned) [Example 110B]
75 to 110	0.01 to 0.1	–	Cc1nc2c(-c3ccc(Cl)cc3F)nc([C@H]3C[C@@H](c4cnn(C)c4)OC(C)(C)C3)nc2c(=O)n1C (single isomer, unassigned) [Example 111A]
< 75	0.1 to 1	–	Cc1nc2c(-c3ccc(Cl)cc3F)nc([C@@H]3C[C@H](c4cnn(C)c4)OC(C)(C)C3)nc2c(=O)n1C (single isomer, unassigned) [Example 111B]
75 to 110	0.01 to 0.1	–	Cc1nc2c(-c3ccc(Cl)cc3F)nc(N3C[C@@H](c4cnn(C)c4)OC(C)(C)C3)cc2c(=O)n1C (single isomer, unassigned) [Example 112A]
< 75	0.1 to 1	–	Cc1nc2c(-c3ccc(Cl)cc3F)nc(N3C[C@H](c4cnn(C)c4)OC(C)(C)C3)cc2c(=O)n1C (single isomer, unassigned) [Example 112B]
< 75	0.1 to 1	–	Cc1nc2c(-c3ccc(Cl)cc3F)nc([C@]34CCO[C@H](c5cnn(C6CC6)c5)[C@H]3C4)nc2c(=O)n1C (single isomer, unassigned) [Example 116A]
